Like-named read-outs stand apart in the source and are kept apart here.
How the values were obtained:
[1] = system: human primary tumor cells; test: Inhibition of primary tumor cell cultures vs constitutively activated form of NK1 receptor (Example 7; tumor type per table line); format: cell-based
Method: (§1) Cell cultures. To obtain tumor cells from human primary tumors we used the method described in De Bari et al. (De Bari et al. 2001). Briefly, small pieces of the tumors were digested into a hyaluronidase solution (Sigma-Aldrich, USA) at a concentration of 1 mg/ml during 15 minutes at 37°C, and then they were treated with 6 mg/ml of collagenase type IV (Invitrogen) during 2 hours at 37°C. Consecutively, cells were washed, and resuspended in the DMEM culture medium with high concentration of glucose (Dulbecco's Modified Eagle's Medium, Invitrogen) supplemented with 1% of antibiotics-antimycotics (Invitrogen) and with 1% of sodium pyruvate (Invitrogen), and the cells were seeded in culture slides at a concentration of 10.000 cells per square centimeter. When cells reached confluence, the adherent cells were separated using sterile trypsin at 0,5% (Invitrogen) and they were used among passages 3 and 9. For the assays shown next, tumor cells were seeded on slides at a concentration of 25.000 cells per well. A total of 6 wells containing the tumor cells were used as survival control. […] All the cultures were kept during 48 hours and later on recollected for their analysis.
It was determined the increase or not in proliferation with the exposition to substance P (NK1 receptor agonist), so that for the cell cultures which grew independently from the exposition to substance P, it was considered that they have constitutively activated forms of such receptor, because a mitogenic signal independently from the presence of the agonist was transmitted. It was checked that all tumor cells presented integrity in the MAP Kinases and PI3 Kinases pathways, as wel as in the K-ras gene, and the protein derived from it.

Ovarian carcinoma = test: Inhibition of primary tumor cell cultures (48 hours) vs NK1 receptor immunostaining (Example 1); format: cell-based; conditions: Homo sapiens, 1 micromolar, read-out: Percentage of inhibition of cell cultures
Method: as §1
(§2) Immunohistochemistry techniques. The presence of NK1 receptors was also analyzed using immunohistochemistry techniques. Briefly, a sample of each of the cultures of the cell lines used in the present invention, was centrifuged (5 minutes at 1.500 rpm) and the pellet obtained was dehydrated using increasing concentrations of ethanol and, finally, xylol. Then, said dehydrated samples were embedded in paraffin, creating a block of cells. Such paraffin blocks were cut with a microtome at 5 microns thickness, and were placed on microscope slides adequate to perform immunohistochemistry techniques. Consecutively, they were de-paraffinized by immersing them in xylol, to be finally hydrated using a solution containing decreasing concentrations of ethanol, and finally submerged them into water. […] After this, the samples were left to cool down at room temperature for 10 minutes. The endogenous peroxidase activity was blocked with 3% peroxide of hydrogen for 30 minutes at room temperature. After washing the samples with 0.05 M of Tris buffer, they were incubated with 10% non-immune pork serum at for 30 minutes at room temperature. To analyze the expression of NK1 receptors, the cellular samples were incubated in the presence of anti-NK1 antibodies (S8305, Sigma-Aldrich) diluted 1:1000, overnight at 4°C. Afterwards, the samples were washed in Tris buffer 0.05 M at room temperature. The next step was the addition of Envision System-HRP (Dako) reagents for 30 minutes at room temperature. Then, the samples were washed again in Tris buffer 0.05 M and the immunoreactivity was visualized through light microscopy with a chromogenic solution containing 3,3'-Diaminobenzidine (DAB+; Dako, USA). To differentiate the cell nuclei, they were slightly stained with hematoxylin. As negative control, it was used samples not incubated with the primary antibody anti-NK1, which was replaced by non-immune serum. All the samples were evaluated.
(§3) To value the immunostaining in each of the cases six cuts were performed to be analyzed by the immunohistochemistry technique. In each of the six cuts, it was counted cells in 20 fields (magnification 400x) using an Olympus microscope (model CX31). In each field it was counted the total number of cells and the number of cells presenting immunostaining, calculating afterwards the percentage of cells which presented immunostaining.

[2] = system: Urinary bladder carcinoma; test: as above; format: cell-based; conditions: Homo sapiens, 1 micromolar, read-out: Percentage of inhibition of cell cultures
Method: as §1, §2, §3

Melanoma = test: as above; format: cell-based; conditions: Homo sapiens, 1 micromolar, read-out: Percentage of inhibition of cell cultures
Method: as §1, §2, §3

Leukemia T = test: as above; format: cell-based; conditions: Homo sapiens, 1 micromolar, read-out: Percentage of inhibition of cell cultures
Method: as §1, §2, §3

[3] = system: Colon carcinoma (Adenocarcinoma); test: Inhibition of primary tumor cell cultures vs Kras mutation (Example 2); format: cell-based, human; conditions: 100 micromolar; for inhibition at 100 µM: Homo sapiens, read-out: Percentage of inhibition of cell cultures; for Percentage of inhibition of cell cultures: Colon carcinoma (Adenocarcinoma)
Method: as §1
(§4) In each case the presence or not of mutations in K-ras gene was determined.
(§5) To determine the existence of mutations in the K-ras gene DNA from cancer tumor cells was extracted from samples obtained from the different cancer tumor cells, using DNA extraction kits from Takara (Madison, WI, US) or Ambion (Huntingdon, Cambridgeshire, United Kingdom), following the manufacturer's instructions, and as it has been previously published (Di Fiore F, et al. 2007). Consecutively it was analyzed by sequencing the exon 2 of the KRAS gene, , by means of PCR amplification from previously extracted cancer tumor DNA, using the following sense primer (SEQ ID NO. 15): 5'-[sequence]-3' and anti-sense primer (SEQ ID NO. 16): 5'-[sequence]-3'. After the purification using the Qiagen extraction kit, the PCR products were sequenced using the Big Dye Terminator Kit V3.1 (Applied Biosystems, Foster City, CA, U.S.) and an ABI Prism 377 or 3100 DNA sequencer (Applied Biosystems). The presence of a heterozygous mutation in the KRAS gene in cancer tumor cells of the cultures was defined as the appearance of a mutant peak of a height of at least a third of the wild type. All the sequence analysis were executed at least twice in two independent PCR.
(§6) The antibody against NK1 receptor (Table 16) was used at 1/50 concentration. The percentages of inhibition are expressed in percentage of variation in relation to control ± standard deviation.

[4] = system: Carcinoma of the uterine cervix (Squamous cell carcinoma); test: as above; format: cell-based, human; conditions: 100 micromolar; for inhibition at 100 µM: Homo sapiens, read-out: Percentage of inhibition of cell cultures; for Percentage of inhibition of cell cultures: Carcinoma of the uterine cervix (Squamous cell carcinoma)
Method: as §1, §4, §5, §6

Glioma (astrocytoma) = test: as above; format: cell-based, human; conditions: 100 micromolar; for inhibition at 100 µM: Homo sapiens, read-out: Percentage of inhibition of cell cultures; for Percentage of inhibition of cell cultures: Glioma (astrocytoma)
Method: as §1, §4, §5, §6

[5] = NK1 receptor immunostaining Group 1 (less than 20% of the cells)
[6] = NK1 receptor immunostaining Group 2 (20-80% of the cells)
[7] = NK1 receptor immunostaining Group 3 (more than 80% of the cells)
[8] = NK1 receptor immunostaining Intensity grade 1
[9] = NK1 receptor immunostaining Intensity grade 2
[10] = NK1 receptor immunostaining Intensity grade 3
[11] = Cases with Kras non-mutated (wild type)

| SMILES | inhibition at 1 µM (Ovarian carcinoma; [5]) [%] | inhibition at 1 µM (Ovarian carcinoma; [6]) [%] | inhibition at 1 µM (Ovarian carcinoma; [7]) [%] | inhibition at 1 µM (Ovarian carcinoma; [8]) [%] | inhibition at 1 µM (Ovarian carcinoma; [9]) [%] | inhibition at 1 µM (Ovarian carcinoma; [10]) [%] | inhibition at 1 µM [2, 5] [%] | inhibition at 1 µM [2, 6] [%] | inhibition at 1 µM [2, 7] [%] | inhibition at 1 µM [2, 8] [%] | inhibition at 1 µM [2, 9] [%] | inhibition at 1 µM [2, 10] [%] | inhibition at 1 µM (Melanoma; [5]) [%] | inhibition at 1 µM (Melanoma; [6]) [%] | inhibition at 1 µM (Melanoma; [7]) [%] | inhibition at 1 µM (Melanoma; [8]) [%] | inhibition at 1 µM (Melanoma; [9]) [%] | inhibition at 1 µM (Melanoma; [10]) [%] | inhibition at 1 µM (Leukemia T; [5]) [%] | inhibition at 1 µM (Leukemia T; [6]) [%] | also measured |
| --- | --- | --- | --- | --- | --- | --- | --- | --- | --- | --- | --- | --- | --- | --- | --- | --- | --- | --- | --- | --- | --- |
| C[C@@H](O[C@H]1OCCN(Cc2n[nH]c(=O)[nH]2)[C@H]1c1ccc(F)cc1)c1cc(C(F)(F)F)cc(C(F)(F)F)c1 [Aprepitant] |  |  |  |  |  |  |  |  |  |  |  |  |  |  |  |  |  |  |  |  | Percentage of inhibition of cell cultures ([1]; Non Hodgkin Lymphoma B (diffuse B cell lymphoma), Group I (constitutively activated form of NK1 receptor)): 74±6%; Percentage of inhibition of cell cultures ([1]; Non Hodgkin Lymphoma T (diffuse T cell lymphoma), Group I (constitutively activated form of NK1 receptor)): 75±6%; Percentage of inhibition of cell cultures ([1]; Non Hodgkin Lymphoma T (diffuse T cell lymphoma), Group II (normal form of the receptor)): 96±4%; inhibition of tumor cell growth ([1]; group with little proliferating response when exposed to substance P (constitutively activated form of NK1 receptor), compared): higher inhibition |
| CC(=O)N1CCN([C@H]2CCN(C(=O)N(C)[C@H](C)c3cc(C(F)(F)F)cc(C(F)(F)F)c3)[C@@H](c3ccc(F)cc3C)C2)CC1 [Casopitant] | 14 ± 3 | 49 ± 3 | 94 ± 4 | 33 ± 4 | 54 ± 4 | 91 ± 3 | 17 ± 3 | 45 ± 3 | 94 ± 6 | 34 ± 4 | 56 ± 4 | 93 ± 4 | 15 ± 3 | 46 ± 4 | 93 ± 5 | 34 ± 3 | 52 ± 4 | 93 ± 3 | 16 ± 2 | 47 ± 5 | inhibition at 1 µM (Leukemia T; [7]): 95 ± 3%; inhibition at 1 µM (Leukemia T; [8]): 34 ± 2%; inhibition at 1 µM (Leukemia T; [9]): 56 ± 4%; inhibition at 1 µM (Leukemia T; [10]): 93 ± 3%; inhibition at 100 µM ([3]; Cases with Kras mutated): 32 ± 4%; inhibition at 100 µM [3, 11]: 94 ± 6%; inhibition at 100 µM ([4]; Cases with Kras mutated): 27 ± 3%; inhibition at 100 µM [4, 11]: 93 ± 3%; inhibition at 100 µM (Glioma (astrocytoma); Cases with Kras mutated): 26 ± 4%; inhibition at 100 µM (Glioma (astrocytoma); [11]): 94 ± 6% |
| Cc1cc(F)ccc1[C@H]1CNCCN1C(=O)N(C)[C@H](C)c1cc(C(F)(F)F)cc(C(F)(F)F)c1 [Vestipitant] | 14 ± 4 | 47 ± 4 | 95 ± 5 | 15 ± 3 | 46 ± 2 | 95 ± 4 | 15 ± 3 | 47 ± 4 | 92 ± 5 | 17 ± 3 | 46 ± 3 | 92 ± 3 | 16 ± 3 | 45 ± 4 | 92 ± 6 | 15 ± 3 | 48 ± 4 | 92 ± 4 | 17 ± 4 | 46 ± 3 | inhibition at 1 µM (Leukemia T; [7]): 94 ± 4%; inhibition at 1 µM (Leukemia T; [8]): 15 ± 3%; inhibition at 1 µM (Leukemia T; [9]): 48 ± 4%; inhibition at 1 µM (Leukemia T; [10]): 94 ± 5%; Percentage of inhibition of cell cultures ([3]; Cases with Kras mutated): 33±5 percentage; Percentage of inhibition of cell cultures [3, 11]: 96±5 percentage; Percentage of inhibition of cell cultures ([4]; Cases with Kras mutated): 25±5 percentage; Percentage of inhibition of cell cultures [4, 11]: 94±3 percentage; Percentage of inhibition of cell cultures (Glioma (astrocytoma); Cases with Kras mutated): 25±3 percentage; Percentage of inhibition of cell cultures (Glioma (astrocytoma); [11]): 97±5 percentage |

— EP2966448B1, “METHOD FOR THE PREDICTION OR PROGNOSIS OF THE RESPONSE OF A HUMAN SUBJECT SUFFERING FROM CANCER TO TREATMENT WITH AN ANTAGONIST OF THE NK1 RECEPTOR” (priority 2013, dated 2014)
